Data reported in patent publication US9504684B2, “Syk inhibitors” (Gilead Sciences, Inc., priority 2014, dated 2016).
Where a name gives a salt, the structure may show the parent alone.

Legend:
[1] = cited from earlier work
human hepatocytes = assay: Human Hepatocyte Stability Assay; assay type: in vitro ADME
Experimental: The human […] stability of the compounds as predicted hepatocyte clearance in L/hr/kg was assessed. Compounds to be tested were diluted to 200 μM (4 μl of 10 mM DMSO stock into 196 μl ACN:H2O (50:50). Propranolol was used as a positive control, and buffer only without hepatocytes as 0% control. These were further diluted 4 μl with 891 μl KHB buffer (InVitroGRO catalog number Z99074) to provide 2× dosing solution. To each well of 24 well plate, 250 μl of the 2× dosing solution was added to each well with 250 μl of hepatocytes cells (1×10^6 viable cells/ml per well) or KHB for control samples to achieve a final compound concentration of 1 μM during incubation. The final solvent concentration was 0.01% DMSO and 0.25% ACN. The culture plate was placed on a rocker and incubated at 37° C., 5% CO2. Samples were collected at time 0, 1, 3, and 6 hours. The loss of parent compound was determined using LC-MS methods against a standard curve.

[2] = in vivo; cited from earlier work
[3] = comparison table of Example 12, head prints "(units)", L/hr/kg per Example 11
[4] = predicted hepatocyte clearance, human hepatocytes, 1 μM compound

| SMILES | Hheps CL (human hepatocytes; [3]) [mL/min/kg] | Hheps CL (human hepatocytes; [4]) [mL/min/kg] | other results |
| --- | --- | --- | --- |
| CC[C@]1(O)C[C@H]2CN(CCc3c([nH]c4ccccc34)[C@@](C(=O)OC)(c3cc4c(cc3OC)N(C=O)[C@H]3[C@@](O)(C(=O)OC)[C@H](OC(C)=O)[C@]5(CC)C=CCN6CC[C@]43[C@@H]65)C2)C1 [Vincristine Sulfate, vincristine sulfate] | – | – | solubility in 95% ethanol ([1]; 95% ethanol): only slightly soluble; solubility in methanol ([1]; methanol): soluble in methanol; solubility in water ([1]; water): freely soluble |
| COc1ccc(Nc2nc(-c3cccc(N)c3)cn3ccnc23)cc1OC [6-(3-aminophenyl)-N-(3,4-dimethoxyphenyl)imidazo[1,2-a]pyrazin-8-amine, reference compound] | 4 | – | – |
| Nc1cncc(-c2cn3ccnc3c(Nc3ccc(N4CCOCC4)cc3)n2)c1 [6-(5-aminopyridin-3-yl)-N-(4-morpholinophenyl)imidazo[1,2-a]pyrazin-8-amine, reference compound] | 11.3 | – | – |
| CC[C@]1(O)C[C@@H]2CN(CCc3c([nH]c4ccccc34)[C@@](C(=O)OC)(c3cc4c(cc3OC)N(C)[C@H]3[C@@](O)(C(N)=O)[C@H](O)[C@]5(CC)C=CCN6CC[C@]43[C@@H]65)C2)C1 [Vindesine, vindesine] | – | – | serum half-life [2]: 24 h |
| COc1ccc(Nc2nc(-c3ccc(N)nc3)cn3ccnc23)cc1OC [6-(6-aminopyridin-3-yl)-N-(3,4-dimethoxyphenyl)imidazo[1,2-a]pyrazin-8-amine, reference compound] | 15 | – | – |
| Cc1ncc(-c2cn3ccnc3c(Nc3ccc(N4CCOCC4)cc3)n2)cc1N [6-(5-amino-6-methylpyridin-3-yl)-N-(4-morpholinophenyl)imidazo[1,2-a]pyrazin-8-amine, reference compound] | 13.3 | – | – |

Further lines, with some results ahead:

| Hheps CL (human hepatocytes; [3]) [mL/min/kg] | Hheps CL (human hepatocytes; [4]) [mL/min/kg] | SMILES | other results |
| --- | --- | --- | --- |
| 1.5 | 1.5 | Nc1cncc(-c2cn3ccnc3c(Nc3ccc(N4CCO[C@@H](CO)C4)cc3)n2)n1 [Ex.-3, (R)-(4-(4-((6-(6-aminopyrazin-2-yl)imidazo[1,2-a]pyrazin-8-yl)amino)phenyl)morpholin-2-yl)methanol] | – |
| 0.917 | 0.917 | Nc1cncc(-c2cn3ccnc3c(Nc3ccc(N4CCN(C5COC5)CC4)cc3)n2)n1 [Ex.-2, 6-(6-aminopyrazin-2-yl)-N-(4-(4-(oxetan-3-yl)piperazin-1-yl)phenyl)imidazo[1,2-a]pyrazin-8-amine] | – |
| 1.2 | 1.2 | Nc1cncc(-c2cn3ccnc3c(Nc3ccc(N4CCN(C5COC5)CC4)c(OCCO)c3)n2)n1 [Ex.-5, 2-(5-((6-(6-aminopyrazin-2-yl)imidazo[1,2-a]pyrazin-8-yl)amino)-2-(4-(oxetan-3-yl)piperazin-1-yl)phenoxy)ethanol] | – |
| 1.3 | 1.3 | Cc1c(-c2cncc(N)n2)nc(Nc2ccc(N3CCN(C4COC4)CC3)cc2)c2nccn12 [Ex.-4, 6-(6-aminopyrazin-2-yl)-5-methyl-N-(4-(4-(oxetan-3-yl)piperazin-1-yl)phenyl)imidazo[1,2-a]pyrazin-8-amine] | – |
| 0.83 | 0.83 | Cc1ncc(-c2cn3ccnc3c(Nc3ccc(N4CCN(C5COC5)CC4)c(OCCO)c3)n2)nc1N [Ex.-7, 2-(5-((6-(6-amino-5-methylpyrazin-2-yl)imidazo[1,2-a]pyrazin-8-yl)amino)-2-(4-(oxetan-3-yl)piperazin-1-yl)phenoxy)ethanol] | – |
| 1.3 | 1.3 | Nc1cncc(-c2cn3ccnc3c(Nc3ccc(N4CCN(CC(CO)CO)CC4)cc3)n2)n1 [Ex.-6, 2-((4-(4-((6-(6-aminopyrazin-2-yl)imidazo[1,2-a]pyrazin-8-yl)amino)phenyl)piperazin-1-yl)methyl)propane-1,3-diol] | – |
| 2 | 2 | Cc1ncc(-c2cn3ccnc3c(Nc3ccc(N4CCN(C5COC5)CC4)cc3)n2)nc1N [Ex.-1, 6-(6-amino-5-methylpyrazin-2-yl)-N-(4-(4-(oxetan-3-yl)piperazin-1-yl)phenyl)imidazo[1,2-a]pyrazin-8-amine] | – |
